In patent US11702422B2, “Imidazopyridazines as modulators of IL-17” (Janssen Pharmaceutica NV, priority 2020, dated 2023):

Assays:
[1] = target: IL-17A(FLAG-Tagged): IL-17RA(His-Tagged) (Homo sapiens, UniProt Q16552, K93Q); test: IL-17A(FLAG-Tagged): IL-17RA(His-Tagged) Binding Disruption Eu-HTRF Assay; settings: IL-17A/IL-17RA binding disruption, simple average if tested more than once
In short: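 IC50 comes from a one-site competition fit of the HTRF 665/620 nm ratio. Compound dilutions (2-fold, 22 points) were held 1 h rt with FLAG-tagged IL-17A dimer, then His-tagged IL-17RA plus Eu-cryptate anti-FLAG and D2 anti-His antibodies were added for 2 h rt.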

[2] = tested on: IL-17A-induced G-CSF production in human normal keratinocyte (NHK); test: NHK Assay: IL-17A-induced G-CSF production in human normal keratinocytes; type: cell-based; settings: adult normal human keratinocytes, IL-17A 5 ng/mL, 24 h, simple average if tested more than once
In short: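 HTRF read-out of supernatant G-CSF, quantified from a standard curve, gave IC50 values. Adult keratinocytes, 3000-4000 cells/well, received human IL-17A (5 ng/mL final) pre-mixed 1 h at rt with compound, in 5% FBS and 0.2% DMSO, 24 h at 37° C.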

UniProt Q16552, sequence (Q16552 with tags, fused parts or gaps K93Q): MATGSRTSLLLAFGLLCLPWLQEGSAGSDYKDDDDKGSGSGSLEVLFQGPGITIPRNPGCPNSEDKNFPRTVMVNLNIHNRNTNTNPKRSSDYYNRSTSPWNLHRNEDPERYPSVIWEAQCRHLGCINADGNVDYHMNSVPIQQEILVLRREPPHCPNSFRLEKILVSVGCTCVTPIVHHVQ

Row | IC50 [1] | Structure (SMILES) | IC50 [2] | IC50 ([2]; Homo sapiens, Keratinocyte)
1 | 0.099 µM | N#CC1(C(NC(=O)CC2CC(F)(F)C2)c2cnn3cc([C@@H](NC(=O)c4nonc4OCC(F)F)C4CCC(F)(F)CC4)nc3c2)CC1 (single isomer, unassigned) [Example 425, N—((S)-(7-((S*)-(1-Cyanocyclopropyl)(2-(3,3-difluorocyclobutyl)acetamido)methyl)imidazo[1,2-b]pyridazin-2-yl)(4,4-difluorocyclohexyl)methyl)-4-(2,2-difluoroethoxy)-1,2,5-oxadiazole-3-carboxamide] | 0.02 µM | 
2 | 0.34 µM | CC(C)n1nccc1C(=O)N[C@H](c1cn2ncc(C(NC(=O)CC3CC(F)(F)C3)C3(C#N)CC3)cc2n1)C1CCC(F)(F)CC1 (single isomer, unassigned) [Example 426, N—((S)-(7-((S*)-(1-Cyanocyclopropyl)(2-(3,3-difluorocyclobutyl)acetamido)methyl)imidazo[1,2-b]pyridazin-2-yl)(4,4-difluorocyclohexyl)methyl)-1-isopropyl-1H-pyrazole-5-carboxamide] | 0.1 µM | 
3 | 0.1 µM | Cc1nonc1C(=O)N[C@H](c1cn2ncc(C(NC(=O)CC3(C(F)(F)F)CC3)C3(C#N)CC3)cc2n1)C1CCC(F)(F)CC1 (single isomer, unassigned) [Example 427, N—((S)-(7-((S*)-(1-Cyanocyclopropyl)(2-(1-(trifluoromethyl)cyclopropyl)acetamido)methyl)imidazo[1,2-b]pyridazin-2-yl)(4,4-difluorocyclohexyl)methyl)-4-methyl-1,2,5-oxadiazole-3-carboxamide] | 0.37 µM | 
4 | 0.37 µM | CC(C)n1nccc1C(=O)N[C@H](c1cn2ncc(C(NC(=O)CC3(C(F)(F)F)CC3)C3(C#N)CC3)cc2n1)C1CCC(F)(F)CC1 (single isomer, unassigned) [Example 428, N—((S)-(7-((S*)-(1-Cyanocyclopropyl)(2-(1-(trifluoromethyl)cyclopropyl)acetamido)methyl)imidazo[1,2-b]pyridazin-2-yl)(4,4-difluorocyclohexyl)methyl)-1-isopropyl-1H-pyrazole-5-carboxamide] | 0.12 µM | 
5 | 2 µM | N#CC1(C(NC(=O)CC2CC(F)(F)C2)c2cnn3cc([C@@H](NC(=O)c4nonc4C4CC4)C4CCC(F)(F)CC4)nc3c2)CC1 (single isomer, unassigned) [Example 429, N—((S)-(7-((R*)-(1-Cyanocyclopropyl)(2-(3,3-difluorocyclobutyl)acetamido)methyl)imidazo[1,2-b]pyridazin-2-yl)(4,4-difluorocyclohexyl)methyl)-4-cyclopropyl-1,2,5-oxadiazole-3-carboxamide] | > 20 µM | 
6 | 1.6 µM | N#CC1(C(NC(=O)CC2CC(F)(F)C2)c2cnn3cc([C@@H](NC(=O)c4nonc4OCC(F)F)C4CCC(F)(F)CC4)nc3c2)CC1 (single isomer, unassigned) [Example 430, N—((S)-(7-((R*)-(1-Cyanocyclopropyl)(2-(3,3-difluorocyclobutyl)acetamido)methyl)imidazo[1,2-b]pyridazin-2-yl)(4,4-difluorocyclohexyl)methyl)-4-(2,2-difluoroethoxy)-1,2,5-oxadiazole-3-carboxamide] | 12 µM | 
7 | 3.8 µM | CC(C)n1nccc1C(=O)N[C@H](c1cn2ncc(C(NC(=O)CC3CC(F)(F)C3)C3(C#N)CC3)cc2n1)C1CCC(F)(F)CC1 (single isomer, unassigned) [Example 431, N—((S)-(7-((R*)-(1-Cyanocyclopropyl)(2-(3,3-difluorocyclobutyl)acetamido)methyl)imidazo[1,2-b]pyridazin-2-yl)(4,4-difluorocyclohexyl)methyl)-1-isopropyl-1H-pyrazole-5-carboxamide] | > 20 µM | 
8 | 3.7 µM | Cc1nonc1C(=O)N[C@H](c1cn2ncc(C(NC(=O)CC3(C(F)(F)F)CC3)C3(C#N)CC3)cc2n1)C1CCC(F)(F)CC1 (single isomer, unassigned) [Example 432, N—((S)-(7-((R*)-(1-Cyanocyclopropyl)(2-(1-(trifluoromethyl)cyclopropyl)acetamido)methyl)imidazo[1,2-b]pyridazin-2-yl)(4,4-difluorocyclohexyl)methyl)-4-methyl-1,2,5-oxadiazole-3-carboxamide] | > 20 µM | 
9 | 1.3 µM | N#CC1(C(NC(=O)CC2(C(F)(F)F)CC2)c2cnn3cc([C@@H](NC(=O)c4nonc4C4CC4)C4CCC(F)(F)CC4)nc3c2)CC1 (single isomer, unassigned) [Example 433, N—((S)-(7-((R*)-(1-Cyanocyclopropyl)(2-(1-(trifluoromethyl)cyclopropyl)acetamido)methyl)imidazo[1,2-b]pyridazin-2-yl)(4,4-difluorocyclohexyl)methyl)-4-cyclopropyl-1,2,5-oxadiazole-3-carboxamide] |  | > 20 µM
10 | 3.3 µM | CC(C)n1nccc1C(=O)N[C@H](c1cn2ncc(C(NC(=O)CC3(C(F)(F)F)CC3)C3(C#N)CC3)cc2n1)C1CCC(F)(F)CC1 (single isomer, unassigned) [Example 434, N—((S)-(7-((R*)-(1-Cyanocyclopropyl)(2-(1-(trifluoromethyl)cyclopropyl)acetamido)methyl)imidazo[1,2-b]pyridazin-2-yl)(4,4-difluorocyclohexyl)methyl)-1-isopropyl-1H-pyrazole-5-carboxamide] | > 20 µM | 
11 | 3.8 µM | Cc1nonc1C(=O)N[C@H](c1cn2ncc(C(NC(=O)C(F)(F)CC3CC3)C3(C#N)CC3)cc2n1)C1CCC(F)(F)CC1 (single isomer, unassigned) [Example 435, N—((S)-(7-((R*)-(1-Cyanocyclopropyl)(3-cyclopropyl-2,2-difluoropropanamido)methyl)imidazo[1,2-b]pyridazin-2-yl)(4,4-difluorocyclohexyl)methyl)-4-methyl-1,2,5-oxadiazole-3-carboxamide] |  | > 20 µM
12 | 1.3 µM | N#CC1(C(NC(=O)C(F)(F)CC2CC2)c2cnn3cc([C@@H](NC(=O)c4nonc4C4CC4)C4CCC(F)(F)CC4)nc3c2)CC1 (single isomer, unassigned) [Example 436, N—((S)-(7-((R*)-(1-Cyanocyclopropyl)(3-cyclopropyl-2,2-difluoropropanamido)methyl)imidazo[1,2-b]pyridazin-2-yl)(4,4-difluorocyclohexyl)methyl)-4-cyclopropyl-1,2,5-oxadiazole-3-carboxamide] |  | > 20 µM
13 | 3.8 µM | CC(C)n1nccc1C(=O)N[C@H](c1cn2ncc(C(NC(=O)C(F)(F)CC3CC3)C3(C#N)CC3)cc2n1)C1CCC(F)(F)CC1 (single isomer, unassigned) [Example 437, N—((S)-(7-((R*)-(1-Cyanocyclopropyl)(3-cyclopropyl-2,2-difluoropropanamido)methyl)imidazo[1,2-b]pyridazin-2-yl)(4,4-difluorocyclohexyl)methyl)-1-isopropyl-1H-pyrazole-5-carboxamide] |  | > 20 µM
14 | 0.47 µM | Cc1nonc1C(=O)N[C@H](c1cn2ncc(C(CC3CCC3)NC(=O)CC3CC(F)(F)C3)cc2n1)C1CCC(F)(F)CC1 (single isomer, unassigned) [Example 438, N—((S)-(7-((R*)-2-Cyclobutyl-1-(2-(3,3-difluorocyclobutyl)acetamido)ethyl)imidazo[1,2-b]pyridazin-2-yl)(4,4-difluorocyclohexyl)methyl)-4-methyl-1,2,5-oxadiazole-3-carboxamide] | 8 µM | 
